System: 931267-113-T-J1-PDC KRAS spheroid with HUVEC/MSC, viability
Assay: Anticancer human tumor 931267-113-T-J1-PDC patient-derived colon adenocarcinoma cell line growth inhibition [KRAS2]
Conditions: for IC50: curve of first compound; for viability, T/C: stronger effect = lower value
Source text: Multicellular complex tumor spheroid response to RAS pathway inhibitors in combination with a targeted agents in patient-derived cell lines with oncogenic KRAS variants from multiple cancer types
A high-throughput screen of multi-cell type tumor spheroids was designed to identify active combinations of targeted small molecules and KRAS pathway inhibitors. Complex spheroids include a stromal component modeled by human endothelial cells (HUVEC) and fibroblasts modeled by human mesenchymal stem cells (MSCs). The concentration ranges selected for each drug and investigational agent were based upon clinically achievable concentrations if the clinical Cmax of the agent was known.
Compounds. The drugs and investigational agents: BI-3406 (NSC825286), BAY-293 (NSC824723), batoprotafib (TNO155; NSC825523), sotorasib (AMG 510; NSC818433), MRTX1257 (NSC819558), elimusertib (BAY 1895344; NSC800525), molibresib (GSK525762; NSC774829), temuterkib (LY3214996; NSC803410), venetoclax (NSC766270), alisertib (NSC759677), olaparib (NSC753686), talazoparib (NSC767125), erdafitinib (NSC781556), ipatasertib (NSC767898), cabozantinib (NSC761068), nintedanib (NSC756659), abemaciclib (NSC768073), docetaxel (NSC628503), trametinib (NSC758246), and sapanisertib (NSC764658) were obtained from the National Cancer Institute (NCI) Developmental Therapeutics Program Chemical Repository. The FDA-approved anticancer drug set is available from the Developmental Therapeutics Program. […] The stock solutions were prepared in dimethyl sulfoxide (DMSO, Sigma-Aldrich, St. Louis, MO, cat. D2650) at 800-fold the tested concentration and stored at -70 degrees C prior to their use. All drugs and investigational agents were tested over a range starting from a high concentration at or near the clinical Cmax and decreasing in half-log increments. If the clinical Cmax for an agent had not been determined, the highest concentration tested was 10 microM.
Cell Culture. All cells were maintained in an incubator at 37 degrees C and 5% CO2 with 95% humidity. The PDC lines were cultured according to standard operating procedures established by the NCI PDMR (https://pdmr.cancer.gov/sops/default.htm). Briefly, all PDCs were thawed and cultured in Matrigel-coated flasks prepared with a working solution of 1X Ham's F-12 nutrient mix, without supplementation (Invitrogen, Waltham, MA, cat. 11765054), 100 U/mL penicillin-streptomycin (Invitrogen, cat. 15140122), and 2.5% Matrigel (Corning Inc., Corning, NY, cat. 354248) for the first three passages. All PDCs were cultured in complete DMEM/F-12 media containing advanced DMEM/F-12 (Invitrogen, cat. 12634028), 4.9% defined fetal bovine serum, heat inactivated (HyClone Laboratories Inc., Logan, UT, cat. SH30070.03HI), 389 ng/mL hydrocortisone (Sigma-Aldrich, cat. H4001), 9.7 ng/mL human EGF recombinant protein (Invitrogen, cat. PHG0313), 23.4 microg/mL adenine (Sigma-Aldrich, cat. A2786), 97.3 U/mL penicillin-streptomycin (Invitrogen, cat. 15140122), 1.9 mM L-glutamine (Invitrogen, cat. 25030081), and 9.7 microM Y-27632 dihydrochloride (Tocris Bioscience, Bristol, United Kingdom, cat. 1254). The PDCs were cultured in complete DMEM/F12 media without 9.7 microM Y-27632 dihydrochloride for at least two passages prior to the screen. The established cell line HOP-62 was cultured in RPMI 1640 medium, HEPES (Invitrogen, cat. 22400105) with 10% defined fetal bovine serum (HyClone Laboratories Inc., cat. SH30070.03) and 2 mM L-glutamine (Invitrogen, cat. 25030081). The pooled donor HUVEC were cultured in endothelial cell growth medium 2 (PromoCell, Heidelberg, Germany, cat. C-22011) and the hMSC were cultured in mesenchymal stem cell growth medium 2 (PromoCell, cat. C-28009). For all experiments, HUVEC and hMSC were used at passages </=5, while the malignant cell lines were used at passages </=15. […]

[1] = second compound 0.1 µM, first compound 0.0316 µM
[2] = second compound 0.1 µM, first compound 0.1 µM
[3] = second compound 0.1 µM, first compound 0.316 µM
[4] = second compound 0.1 µM, first compound 1 µM
[5] = second compound 0.1 µM, first compound 3.16 µM
[6] = second compound 0.316 µM, first compound 0.0316 µM
[7] = second compound 0.316 µM, first compound 0.1 µM
[8] = second compound 0.316 µM, first compound 0.316 µM
[9] = second compound 0.316 µM, first compound 1 µM
[10] = second compound 0.316 µM, first compound 3.16 µM
[11] = second compound 1 µM, first compound 0.0316 µM
[12] = second compound 1 µM, first compound 0.1 µM
[13] = second compound 1 µM, first compound 0.316 µM
[14] = second compound 1 µM, first compound 1 µM
[15] = second compound 1 µM, first compound 3.16 µM
[16] = second compound 3.16 µM, first compound 0.0316 µM
[17] = second compound 3.16 µM, first compound 0.1 µM
[18] = second compound 3.16 µM, first compound 0.316 µM
[19] = second compound 3.16 µM, first compound 1 µM
[20] = second compound 3.16 µM, first compound 3.16 µM
[21] = second compound 0.0316 µM, first compound 0.01 µM
[22] = second compound 0.0316 µM, first compound 0.0316 µM
[23] = second compound 0.0316 µM, first compound 0.1 µM
[24] = second compound 0.1 µM, first compound 0.01 µM
[25] = second compound 0.316 µM, first compound 0.01 µM
[26] = second compound 1 µM, first compound 0.01 µM
[27] = second compound 3.16 µM, first compound 0.01 µM
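Also: compound exposure lasted 7 days before the readout.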
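For viability, T/C in this document: 100% = DMSO vehicle control viability.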

With `CC1OCC2(CCN(c3cnc(Sc4ccnc(N)c4Cl)c(N)n3)CC2)C1N` (stereo not given) + C=CC(=O)N1CCN(c2nc(=O)n(-c3c(C)ccnc3C(C)C)c3nc(-c4c(O)cccc4F)c(F)cc23)C(C)C1 the IC50 (second compound 0.1 µM) was > 10 µM, the IC50 (second compound 0.316 µM) was > 10 µM and the IC50 (second compound 1 µM) was > 10 µM. The IC50 (second compound 3.16 µM) was > 10 µM, the IC50 (second compound 10 µM) was > 10 µM and the viability, T/C [1] was 86.7%. It also gave a viability, T/C [2] of 73.4%, a viability, T/C [3] of 69.9% and a viability, T/C [4] of 64.8%. It also gave a viability, T/C [5] of 67.5%, a viability, T/C (second compound 0.1 µM, first compound 10 µM) of 77.4% and a viability, T/C [6] of 119%. It also gave a viability, T/C [7] of 92.3%, a viability, T/C [8] of 83.3% and a viability, T/C [9] of 73.6%. For the same compound, the viability, T/C [10] was 80.4%, the viability, T/C (second compound 0.316 µM, first compound 10 µM) was 83.5% and the viability, T/C [11] was 118%. The viability, T/C [12] was 87.8%, the viability, T/C [13] was 79% and the viability, T/C [14] was 64.1%. For the same compound, the viability, T/C [15] was 78.7%, the viability, T/C (second compound 1 µM, first compound 10 µM) was 78.9% and the viability, T/C [16] was 99.7%. The viability, T/C [17] was 91.8%, the viability, T/C [18] was 100% and the viability, T/C [19] was 87.3%. It also gave a viability, T/C [20] of 70.1%, a viability, T/C (second compound 3.16 µM, first compound 10 µM) of 82.3% and a viability, T/C (second compound 10 µM, first compound 0.0316 µM) of 92.3%. It also gave a viability, T/C (second compound 10 µM, first compound 0.1 µM) of 74.8%, a viability, T/C (second compound 10 µM, first compound 0.316 µM) of 79.7% and a viability, T/C (second compound 10 µM, first compound 1 µM) of 75.6%. It also gave a viability, T/C (second compound 10 µM, first compound 3.16 µM) of 74.1% and a viability, T/C (second compound 10 µM, first compound 10 µM) of 67%.
With `CC(=O)OC12COC1CC(O)C1(C)C(=O)C(O)C3=C(C)C(OC(=O)C(O)C(NC(=O)OC(C)(C)C)c4ccccc4)CC(O)(C(OC(=O)c4ccccc4)C21)C3(C)C` (stereo not given) + C=CC(=O)N1CCN(c2nc(OCC3CCCN3C)nc3c2CCN(c2cccc4cccc(C)c24)C3)CC1CC#N the IC50 (second compound 0.0316 µM) was > 3.16 µM, the IC50 (second compound 0.1 µM) was > 3.16 µM and the IC50 (second compound 0.316 µM) was > 3.16 µM. The IC50 (second compound 1 µM) was 1.3 µM, the IC50 (second compound 3.16 µM) was > 3.16 µM and the viability, T/C [21] was 87.4%. The viability, T/C [22] was 86.6%, the viability, T/C [23] was 76.2% and the viability, T/C (second compound 0.0316 µM, first compound 0.316 µM) was 91.5%. The viability, T/C (second compound 0.0316 µM, first compound 1 µM) was 128%, the viability, T/C (second compound 0.0316 µM, first compound 3.16 µM) was 78.6% and the viability, T/C [24] was 106%. For the same compound, the viability, T/C [1] was 99.4%, the viability, T/C [2] was 89.6% and the viability, T/C [3] was 82.7%. It also gave a viability, T/C [4] of 72.1%, a viability, T/C [5] of 82.4% and a viability, T/C [25] of 126%. The viability, T/C [6] was 109%, the viability, T/C [7] was 94.7% and the viability, T/C [8] was 75.8%. For the same compound, the viability, T/C [9] was 76.7%, the viability, T/C [10] was 75.5% and the viability, T/C [26] was 84.5%. For the same compound, the viability, T/C [11] was 91.4%, the viability, T/C [12] was 77% and the viability, T/C [13] was 86%. It also gave a viability, T/C [14] of 54.6%, a viability, T/C [15] of 34.5% and a viability, T/C [27] of 83.5%. The viability, T/C [16] was 104%, the viability, T/C [17] was 102% and the viability, T/C [18] was 84.8%. The viability, T/C [19] was 91.7% and the viability, T/C [20] was 90.1%.
In the case of `CN(C)C/C=C/C(=O)Nc1cc2c(Nc3ccc(F)c(Cl)c3)ncnc2cc1O[C@H]1CCOC1` + C=CC(=O)N1CCN(c2nc(OCC3CCCN3C)nc3c2CCN(c2cccc4cccc(C)c24)C3)CC1CC#N, the IC50 (second compound 0.0316 µM) is reported as > 0.1 µM, the IC50 (second compound 0.1 µM) is reported as > 0.1 µM and the IC50 (second compound 0.316 µM) is reported as > 0.1 µM. For the same compound, the IC50 (second compound 1 µM) was > 0.1 µM, the IC50 (second compound 3.16 µM) was < 0.000316 µM and the viability, T/C (second compound 0.0316 µM, first compound 0.000316 µM) was 82.1%. The viability, T/C (second compound 0.0316 µM, first compound 0.001 µM) was 86.9%, the viability, T/C (second compound 0.0316 µM, first compound 0.00316 µM) was 98.2% and the viability, T/C [21] was 68.6%. It also gave a viability, T/C [22] of 78.3%, a viability, T/C [23] of 75.8% and a viability, T/C (second compound 0.1 µM, first compound 0.000316 µM) of 89.2%. The viability, T/C (second compound 0.1 µM, first compound 0.001 µM) was 98%, the viability, T/C (second compound 0.1 µM, first compound 0.00316 µM) was 65.7% and the viability, T/C [24] was 62.1%. For the same compound, the viability, T/C [1] was 65.9%, the viability, T/C [2] was 64.1% and the viability, T/C (second compound 0.316 µM, first compound 0.000316 µM) was 77.6%. For the same compound, the viability, T/C (second compound 0.316 µM, first compound 0.001 µM) was 70.7%, the viability, T/C (second compound 0.316 µM, first compound 0.00316 µM) was 69.3% and the viability, T/C [25] was 62.2%. It also gave a viability, T/C [6] of 66.2%, a viability, T/C [7] of 70.7% and a viability, T/C (second compound 1 µM, first compound 0.000316 µM) of 59.1%. The viability, T/C (second compound 1 µM, first compound 0.001 µM) was 72.6%, the viability, T/C (second compound 1 µM, first compound 0.00316 µM) was 70% and the viability, T/C [26] was 72.1%. The viability, T/C [11] was 53.1%, the viability, T/C [12] was 59.6% and the viability, T/C (second compound 3.16 µM, first compound 0.000316 µM) was 0.31%. The viability, T/C (second compound 3.16 µM, first compound 0.001 µM) was 0.19%, the viability, T/C (second compound 3.16 µM, first compound 0.00316 µM) was 0.24% and the viability, T/C [27] was 0.2%. It also gave a viability, T/C [16] of 0.21% and a viability, T/C [17] of 0.47%.

From PubChem BioAssay AID1963863 (Molecular Pharmacology Branch, DTP, NCI, 2024)
